{"source": "patent US11331290B2", "about": "“Niclosamide for the treatment of cancer metastasis” (Max-Delbrück-Centrum für Molekulare Medizin in der …, priority 2011, dated 2022)", "system": "S100A4 mRNA", "assay": "S100A4 mRNA expression by qRT-PCR in colon cancer cells", "assay_type": "cell-based, human", "procedure": "Total RNA was isolated from 4×10^5 cells plated in a 6-well-plates 24 hour before cells were lyzed with Trizol Reagent (Invitrogen). RNA was extracted with Trizol RNA extraction reagent (Invitrogen) according to the manufacturer's instructions. Quantification of the RNA concentration was performed with Nanodrop (Peqlab) and 50 ng total RNA was reverse transcribed with random hexamers in 10 mM MgCl2; 1× RT-buffer, 250 μM pooled dNTPs, 1 U per μL RNAse inhibitor and 2.5 U per μL MuLV reverse transcriptase (all Applied Biosystems). Reaction occurred at 42° C. for 15 minutes, 99° C. for 5 minutes and subsequent cooling at 5° C. for 5 minutes. The cDNA product was amplified in a total volume of 10 μL in 96-well-plates in the LightCycler 480 (Roche) using the following conditions: 95° C., 10 minutes, followed by 45 cycles of 95° C. for 10 seconds, 61° C. for 30 seconds and 72° C. for 4 seconds. For S100A4 cDNA quantification the following primer and probes were used: forward primer 5′-CTCAGCGCTTCTTCTTTC-3′, reverse primer 5′-GGGTCAGCAGCTCCTTTA-3′, fluorescein isothiocyanate probe 5′-[…]-3′, LCRed640-probe 5′-[…]-3′. For cDNA quantification of the housekeeping gene glucose-6-phosphate dehydrogenase (G6PD) the hG6PDH Roche Kit (Roche Diagnostics, Mannheim, Germany) was used according to manufacturers instructions. Data analysis was performed with LightCycler® 480 Software release 1.5.0 SP3. For each qRT-PCR reaction a mean of the duplicate was calculated. Each mean value of the expressed gene was normalized to the respective mean amount of the G6PD cDNA.\n(A) Determination of the cytotoxicity of niclosamide on HCT116 cells. Cells were treated with increasing concentrations of niclosamide for 24 hours and cell viability was measured. (B) Effect of increasing concentrations of niclosamide on S100A4 expression. HCT116 cells were treated with increasing concentrations of niclosamide for 24 hours. S100A4 expression was determined by quantitative reverse-transcription-polymerase chain reaction (qRT-PCR) and immunoblot. (C) Time-dependency of niclosamide effect on S100A4 expression. HCT116 cells were treated with a single dose of 1 μM niclosamide for 24 hours and S100A4 expression was analyzed by qRT-PCR and immunoblot at indicated time points. Black bar indicates the chosen treatment conditions for further experiments. (D) Effect of daily doses of niclosamide on S100A4 expression. HCT116 cells were treated daily with 1 μM niclosamide and S100A4 expression was analyzed by qRT-PCR and immunoblot. Data is given as mean±SD (n>2). Differences in treated groups were compared with the control group by two-sided one-way analysis of variances and Bonferroni post hoc multiple comparison test.\n(E) Effect of niclosamide in HCT116-vector and HCT116-S100A4 cells. HCT116-vector and HCT116-S100A4 cells were treated with 1 μM niclosamide for 24 hours and S100A4 expression was analyzed by qRT-PCR and immunoblot. Data is given as mean±SD (n>2). Comparison of niclosamide vs. solvent-treated cells was analyzed with Student's t test.\n(A) S100A4 expression under niclosamide treatment. Cells were treated with 1 μM niclosamide for 24 hours. S100A4 expression was analyzed with qRT-PCR and immunoblot. (B) Cell migration under niclosamide treatment. Migration rates of cells treated with 1 μM niclosamide for 24 hours were determined in a Boyden chamber assay values were normalized to solvent-treated SW620 cells. (C) Cell invasion under niclosamide treatment. Cells were seeded onto Matrigel covered transwells and treated with 1 μM niclosamide for 24 hours. Invaded cells in the lower chamber were counted and normalized to solvent-treated SW620 cells. Differences in solvent vs. niclosamide-treated cells were analyzed by Student's t test. Data represent mean±SE of at least two independent experiments each performed in triplicate. (D) Directed migration under niclosamide treatment. Wounds of 300 μM width were set in a 60% confluent monolayer of cells on day 1. […]"}
{"molecule": "O=C(Nc1ccc([N+](=O)[O-])cc1Cl)c1cc(Cl)ccc1O", "note": "[niclosamide, 2′,5-dichloro-4′-nitrosalicylanilide]", "values": [{"measurement": "S100A4 mRNA", "setting": "DLD-1, 1 μM, 24 h, mRNA barely detectable", "value": "remained unchanged"}, {"measurement": "S100A4 mRNA expression, mean difference control vs niclosamide", "setting": "HAB-68mut, 1 μM, 24 h", "value": 0.55}, {"measurement": "S100A4 mRNA expression, mean (relative to HCT116 control)", "setting": "HAB-68mut, 1 μM, 24 h, control 1.17", "value": 0.62}, {"measurement": "S100A4 mRNA expression, mean (relative to HCT116 control)", "setting": "HAB-92 wt, 1 μM, 24 h, control 0.03, statistically not significant", "value": 0.01}, {"measurement": "S100A4 mRNA expression, mean difference control vs niclosamide", "setting": "HAB-92 wt, 1 μM, 24 h, statistically not significant", "value": 0.02}, {"measurement": "S100A4 mRNA, mean %", "setting": "HCT116, 1 μM daily for 3 days, 24 hours post-treatment, control 101.9%", "value": 58.0, "unit": "%"}, {"measurement": "S100A4 mRNA, mean %", "setting": "HCT116, 1 μM daily for 3 days, 48 hours post-treatment, control 98.1%", "value": 44.4, "unit": "%"}, {"measurement": "S100A4 mRNA, mean %", "setting": "HCT116, 1 μM daily for 3 days, 72 hours post-treatment, control 100.0%", "value": 57.9, "unit": "%"}, {"measurement": "S100A4 mRNA, mean % of solvent-treated control", "setting": "HCT116, 1 μM daily, 24 hours", "value": 46.0, "unit": "%"}, {"measurement": "S100A4 mRNA, mean % of solvent-treated control", "setting": "HCT116, 1 μM daily, 48 hours", "value": 44.5, "unit": "%"}, {"measurement": "S100A4 mRNA, mean % of solvent-treated control", "setting": "HCT116, 1 μM daily, 72 hours", "value": 59.5, "unit": "%"}, {"measurement": "S100A4 mRNA expression, mean difference control vs niclosamide", "setting": "HCT116, 1 μM, 24 h (relative scale)", "value": 0.54}, {"measurement": "S100A4 mRNA expression, mean (relative to HCT116 control)", "setting": "HCT116, 1 μM, 24 h, control 1.00", "value": 0.46}, {"measurement": "S100A4 mRNA, mean % of solvent-treated control", "setting": "HCT116, 1 μM, single dose, 18 hours", "value": 47.5, "unit": "%"}, {"measurement": "S100A4 mRNA, mean % of solvent-treated control", "setting": "HCT116, 1 μM, single dose, 24 h", "value": 47.4, "unit": "%"}, {"measurement": "S100A4 mRNA and protein levels", "setting": "HCT116, 1 μM, single dose, after 30-48 hours", "value": "returned to the control level"}, {"measurement": "S100A4 mRNA, mean % of solvent-treated control", "setting": "HCT116, 1.5 μM, 24 h", "value": 39.2, "unit": "%"}, {"measurement": "S100A4 mRNA, mean % of solvent-treated control", "setting": "HCT116, 2 μM, 24 h", "value": 39.1, "unit": "%"}, {"measurement": "S100A4 mRNA, mean % of solvent-treated control", "setting": "HCT116, 2.5 μM, 24 h", "value": 36.7, "unit": "%"}, {"measurement": "S100A4 mRNA, mean difference control vs niclosamide", "setting": "HCT116, 24 hours post-treatment", "value": 43.9, "unit": "%"}, {"measurement": "S100A4 mRNA, mean difference control vs niclosamide", "setting": "HCT116, 48 hours post-treatment", "value": 53.7, "unit": "%"}, {"measurement": "S100A4 mRNA, mean difference control vs niclosamide", "setting": "HCT116, 72 hours post-treatment", "value": 42.1, "unit": "%"}, {"measurement": "change in S100A4 expression", "setting": "HCT116, concentrations below 1 μM, 24 h", "value": "No change"}, {"measurement": "S100A4 mRNA, mean difference control vs niclosamide", "setting": "HCT116-S100A4, 1 μM, 24 h, not statistically significant", "value": 104.7, "unit": "%"}, {"measurement": "S100A4 mRNA, mean %", "setting": "HCT116-S100A4, 1 μM, 24 h, solvent control 717.0%, not statistically significant", "value": 612.3, "unit": "%"}, {"measurement": "S100A4 mRNA, mean % of solvent-treated control", "setting": "HCT116-vector, 1 μM, 24 h", "value": 57.8, "unit": "%"}, {"measurement": "S100A4 mRNA, mean difference control vs niclosamide", "setting": "HCT116-vector, 1 μM, 24 h", "value": 42.0, "unit": "%"}, {"measurement": "S100A4 mRNA, mean difference control vs niclosamide", "setting": "LS174T, 1 μM, 24 h", "value": 51.9, "unit": "%"}, {"measurement": "S100A4 mRNA, mean %", "setting": "LS174T, 1 μM, 24 h, solvent control 65.5%", "value": 13.5, "unit": "%"}, {"measurement": "S100A4 mRNA, mean difference control vs niclosamide", "setting": "SW480, 1 μM, 24 h", "value": 35.0, "unit": "%"}, {"measurement": "S100A4 mRNA, mean %", "setting": "SW480, 1 μM, 24 h, solvent control 41.0%", "value": 6.0, "unit": "%"}, {"measurement": "S100A4 mRNA, mean difference control vs niclosamide", "setting": "SW620, 1 μM, 24 h", "value": 68.8, "unit": "%"}, {"measurement": "S100A4 mRNA, mean %", "setting": "SW620, 1 μM, 24 h, solvent control 100.0%", "value": 31.2, "unit": "%"}]}
